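Tested at 5 concentrations; 48 h exposure; 96-well plates; endpoints linearly interpolated, else capped at highest concentration. TGI: total growth inhibition.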 Where a SMILES comes first, the peptide text is derived from it. The star is where a group is joined. Boc = CC(C)(C)OC(=O)*

Test in all cases: DTP human tumour cell line panel, 48 h
Test [1] deals with SW-620 colon.
The test system of test [2] is SR leukemia.
The test system of test [3] is IGROV1 ovarian.
The test system of test [4] is RXF 393 renal.
Test [5] has as its system DU-145 prostate.
The test system of test [6] is HS 578T breast.
The subject of test [7] is HT29 colon.
The subject of test [8] is M14 melanoma.
The test system of test [9] is A549 NSCLC.
In test [10] the test system is MCF7 breast.
Test [11] concerns SF-268 CNS.
Test [12] has as its system SK-MEL-5 melanoma.
Test [13] has as its system SN12C renal.
The subject of test [14] is LOX IMVI melanoma.
Test [15] concerns COLO 205 colon.

One may read the TGI as the concentration at which net growth stops. Low values mean more potent growth arrest, high ones less potent growth arrest. In the case of `O=C1C=CC(=O)c2c(O)c(NCCO)c(Cl)c(O)c21`, the TGI is 5.11 µM in [1]; above 6.94 µM in test [2]; 5.63 µM in test [3]; 3.46 µM in [4]; 4.98 µM in test [5]; above 10 µM in test [6]. In addition, the concentration for total growth inhibition (TGI) in test [7] is 7.43 µM; in test [8], 4.78 µM; in test [9], 3.78 µM; in test [10], 3.94 µM; in test [11], above 10 µM; in test [12] it was 2.75 µM. For the same molecule, the TGI in test [13] is above 5.55 µM; in [14] it was 3 µM; in test [15] it was 3.4 µM.

For `O=C(CCc1ccc(O)c(O)c1)NCCc1ccccc1`, the TGI in [1] was above 100 µM; in [2], 47.5 µM; in test [3], above 100 µM; in test [4], above 100 µM; in test [5] it was above 100 µM; in [6], above 100 µM. Moreover, the TGI in test [7] is above 72.2 µM; in test [8], above 100 µM; in [9], above 100 µM; in test [10] it was 35 µM; in [11], above 100 µM; in test [12] it was above 48.7 µM. For the same molecule, the TGI in [13] was above 31.6 µM; in test [14], above 100 µM; in test [15] it was above 100 µM.

For the molecule `Clc1cc2nc(C3CCCCO3)[nH]c2cc1Cl` (stereo not drawn), the TGI is above 100 µM in [1]; above 100 µM in [2]; above 100 µM in [3]; above 52.6 µM in [4]; above 100 µM in [5]; above 71.3 µM in [6]. Moreover, the TGI in [7] was 25.8 µM; in test [8], above 100 µM; in [9] it was above 100 µM; in [10], 36.5 µM; in [11], above 100 µM; in test [12], above 100 µM. Besides, the TGI in test [13], in [14] and in [15] was above 100 µM in each case.

As for `CCOc1cc(/C=N/c2nc3cc4sc(/N=C/c5ccc(O)c(OCC)c5)nc4cc3s2)ccc1O`, the TGI in test [1], in test [2], in test [3], in test [4], in test [5] and in test [6] was above 100 µM each time. Also, the TGI in [7], in test [8], in test [9], in test [10], in test [11] and in test [12] was above 100 µM throughout. Further, the TGI in test [13], in test [14] and in [15] was above 100 µM each time.

With `COc1ccc(/C=C2\C[C@H]3[C@@H]4CC=C5C[C@@H](OC(C)=O)CC[C@]5(C)[C@H]4CC[C@]3(C)C2=O)cc1OC`, the TGI in test [1], in test [2], in test [3], in test [4], in test [5] and in test [6] was above 100 µM each time. In addition, the TGI in [7] was above 100 µM; in test [8], above 100 µM; in test [9], above 100 µM; in test [10] it was above 100 µM; in test [11] it was above 100 µM; in [12] it was 26.4 µM. Also, the total growth inhibition concentration (TGI) in test [13], in [14] and in [15] was above 100 µM throughout.

As for `COc1ccc2nc3cc([N+](=O)[O-])ccc3c(NNc3ccc([N+](=O)[O-])cc3)c2c1`, the TGI in [1] was above 64.7 µM; in test [2], above 69 µM; in [3], above 59 µM; in test [4], above 100 µM; in test [5], above 100 µM; in [6], above 100 µM. Also, the TGI was above 63.9 µM in test [7]; above 100 µM in test [8]; above 100 µM in test [9]; above 100 µM in [10]; above 100 µM in [11]; 61.4 µM in test [12]. The TGI in test [13], in test [14] and in test [15] was above 100 µM in each case.

For `C=C[C@]1(C)CC(=O)C(C(C)C=O)[C@]12C(=O)Oc1cccc(C)c1C2=O` (stereo partly drawn), the TGI in [1] was 25.2 µM; in test [2], above 100 µM; in test [4] it was 27.6 µM; in test [5], 30.6 µM; in test [6], 42.7 µM; in test [7], 27.6 µM. Also, the concentration for total growth inhibition (TGI) was 29.8 µM in [8]; 44.4 µM in [9]; 32.7 µM in test [10]; 43.3 µM in test [11]; 25.9 µM in [12]; 30.3 µM in test [13]. Further, the TGI in test [14] is 27.5 µM; in test [15], 31.2 µM.

Consider `O=c1sc(Nc2ccc3ccccc3c2Cl)nc2ccccc12`, for which the TGI in test [1], in test [2], in test [3], in test [4], in test [5] and in test [6] was above 100 µM in each case. Also, the TGI in test [7], in test [9], in test [10], in test [11], in test [12] and in test [13] was above 100 µM in each case. The TGI in [14] and in test [15] was above 100 µM throughout.

With `CC(NC(=O)C1CCCN1C(=O)CNC(=O)OC(C)(C)C)C(=O)O` (stereo not drawn) (Boc-Gly-Pro-Ala-OH; configuration not given here), the TGI in test [1], in [2], in [3], in test [4], in test [5] and in test [6] was above 100 µM in each case. The TGI in test [7], in test [8], in test [9], in test [10], in test [11] and in test [12] was above 100 µM each time. In addition, the total growth inhibition concentration (TGI) in test [13] and in test [15] was above 100 µM each time.

Consider `COc1ccc2nc3c(C)cc4ccccc4n3c2c1`, for which the TGI in test [1] was above 100 µM; in [2], above 100 µM; in test [3], above 100 µM; in test [4] it was above 100 µM; in test [5], above 100 µM; in [6] it was 79.3 µM. For the same molecule, the TGI in test [7], in test [8], in [9], in test [10], in [11] and in [12] was above 100 µM each time. Also, the TGI in test [13] was above 100 µM.

On to `O=c1ccn(Cc2ccccc2CCl)c(=O)[nH]1`, for which the TGI in test [1] was above 100 µM; in test [2], 73.4 µM; in [3], 55.3 µM; in test [4], 53.5 µM; in [5], above 100 µM; in test [6] it was 91.2 µM. Moreover, the TGI in test [7] was 68.6 µM; in [8], 73.9 µM; in test [9] it was above 100 µM; in [10], 77.9 µM; in [11] it was 75.8 µM; in test [12], 23.3 µM. The TGI in [13] was 59.4 µM; in test [15], 94.3 µM.

For the molecule `CCCC(=O)N(C)N=Nc1ccc(C(=O)OCC)cc1`, the TGI in [1], in test [2], in test [3], in [4], in test [5] and in [6] was above 100 µM throughout. The TGI in test [7], in test [8], in test [9], in test [10], in [11] and in [12] was above 100 µM in each case. The TGI in test [13] and in [14] was above 100 µM throughout.

Consider `Fc1ccc(Oc2nc3ccccc3nc2-c2ccccc2)cc1`, for which the TGI in test [1], in [2], in [3], in test [4], in [5] and in test [6] was above 100 µM in each case. In addition, the TGI in test [7], in test [10], in test [11], in test [12], in test [13] and in test [14] was above 100 µM in each case. Further, the TGI in [15] was above 100 µM.

For the molecule `Cc1ccc(C(=O)O)c(/C=C2\Cc3cc(C)cc(C)c3C2=O)c1`, the TGI in test [1], in [2], in test [3], in test [4], in test [5] and in test [6] was above 100 µM each time. Further, the TGI in test [7], in [9], in test [10], in test [11], in test [12] and in [13] was above 100 µM each time. The molecule also showed a TGI in [14] above 100 µM.

With `CC(C)(C)CNCCCNc1ccc(Cl)cc1`, the concentration for total growth inhibition (TGI) in test [1] was above 100 µM; in test [2], 49.4 µM; in test [3], above 100 µM; in [4], 74.3 µM; in test [5], above 100 µM; in test [6] it was above 100 µM. For the same molecule, the total growth inhibition concentration (TGI) in test [7] is 56.5 µM; in test [8] it was 58.6 µM; in test [9] it was above 100 µM; in test [10], 46 µM; in test [11] it was above 100 µM; in test [13] it was above 100 µM. Besides, the TGI in test [14] turned out to be 46.9 µM; in test [15], 45.3 µM.

The values are drawn from PubChem BioAssay (NCI).
